Experimental data taken from US11382947B2, “Targeting G3BP proteins to accelerate nerve regeneration” (University of South Carolina, priority 2017, dated 2022).
Entries after “also recorded” stand apart in the source; their conditions may differ.

Key:
Type in all cases: cell-based, rat
DRG neurons [1] = test: Axon growth of DRG neurons transfected with G3BP1 constructs or siRNA; conditions: siRNA-mediated knockdown, 100 nM siRNA vs. control siRNA; FIG. 15C
Experimental: For primary neuronal cultures, L4-5 DRG were harvested in Hybernate-A medium (BrainBits) and then dissociated as known to those of skill in the art. After centrifugation and washing in DMEM/F12 (Life Technologies), cells were resuspended in DMEM/F12, 1×N1 supplement (Sigma), 10% fetal bovine serum (Hyclone), and 10 μM cytosine arabinoside (Sigma). Dissociated DRGs were plated immediately on laminin/poly-L-lysine-coated coverslips or transfected (see below) and then plated on coated coverslips.
For DRG neuron transfection, dissociated ganglia were pelleted by centrifugation at 100×g for 5 min and resuspended in ‘nucleofector solution’ (Rat Neuron Nucleofector kit; Lonza). 5-7 μg plasmid was electroporated using an AMAXA Nucleofector apparatus (program SCN-8; Lonza). For siRNA transfection, 100 nM siRNAs (Dharmacon) were used with DharmaFECT 3 reagent and incubated for 36 h. G3BP1 siRNA sequence: 5′ […] 3′. Non-targeting siRNAs (siCon) were as control. RTddPCR was used to test the efficiency of depletion (see below). HEK293T cells were transfected using Lipofectamine® 2000 per manufacturer's instructions (Invitrogen). AAV5 preparations were titrated in DRG cultures by incubating with […] particles of AAV5 overnight.
For neurite outgrowth, images from 60 h DRG cultures were analyzed for neurite outgrowth using WIS-Neuromath. […]

DRG neurons [2] = test: Axon growth of dissociated DRG neuron cultures treated with Tat-fused G3BP1 peptides
Experimental: For primary neuronal cultures, L4-5 DRG were harvested in Hybernate-A medium (BrainBits) and then dissociated as known to those of skill in the art. After centrifugation and washing in DMEM/F12 (Life Technologies), cells were resuspended in DMEM/F12, 1×N1 supplement (Sigma), 10% fetal bovine serum (Hyclone), and 10 μM cytosine arabinoside (Sigma). Dissociated DRGs were plated immediately on laminin/poly-L-lysine-coated coverslips or transfected (see below) and then plated on coated coverslips. […] Neurite outgrowth was assessed 24 h after addition of peptides. For the cortical cultures, 10 μM peptide was applied to the axonal compartment at 3 d in vitro (DIV) and axonal growth was assessed at 6 DIV. For neurite outgrowth, images from 60 h DRG cultures were analyzed for neurite outgrowth using WIS-Neuromath. Axon morphology was visualized using GFP and/or NF immunofluorescence as described.

cortical neurons = test: Axon growth of cortical neurons in microfluidic devices, peptide applied to axonal compartment; conditions: 10 μM peptide applied to axonal compartment at 3 DIV, assessed at 6 DIV; FIG. 11C
Experimental: For cortical neuron cultures, E18 cortices were dissected in Hibernate E (BrainBits) and dissociated using the Neural Tissue Dissociation kit (Miltenyi Biotec). […] After washing and centrifugation, neurons were seeded at a density of 1×10^5 cells per poly-D-lysine-coated microfluidic device (Xona Microfluidics). NbActive-1 medium (BrainBits) supplemented with 100 U/ml of Penicillin-Streptomycin (Life Technologies), 2 mM L-Glutamine (Life Technologies), and 1×[…] supplement (R&D Systems) was used as culture medium. For peptide treatments, 10 μM Tat-fused peptides were added to dissociated DRG cultures at 2 or 12 h after plating. Neurite outgrowth was assessed 24 h after addition of peptides. For the cortical cultures, 10 μM peptide was applied to the axonal compartment at 3 d in vitro (DIV) and axonal growth was assessed at 6 DIV.

[3] = test system: protein synthesis in DRG neurons; test: Puromycinylation assay for newly synthesized proteins in DRG neurons; conditions: peptide treatment, compared to control and 168-189 peptide, FIG. 12D
Experimental: To visualize newly synthesized proteins in cultured neurons, the current disclosure used the Click-iT® Plus OPP Protein Synthesis Assay Kit per manufacturer's instructions (Invitrogen/Life Technologies). Briefly, 3 DIV cultures were incubated with 20 μM O-propargyl-puromycin (OPP) for 30 min at 37° C. OPP-labeled proteins were detected by crosslinking with Alexa Fluor-594 picolyl azide molecule. Coverslips were then mounted with Prolong Gold Antifade (Invitrogen) and imaged with Leica DMI6000 epifluorescent microscope as above. ImageJ was used to quantify the Puromycinylation signals in distal axons and cell bodies.

[4] = test system: axonal G3BP1-mCh aggregates; test: Live cell imaging of G3BP1-mCherry granules in DRG axons
Experimental: DRG neurons were transfected with G3BP1-mCherry, and 36 h later distal axons were imaged using Leica SP8X confocal microscope with environmental chamber maintained at 37° C., 5% CO2 (with 63×/1.4 NA oil immersion objective). Confocal pinhole was set to 0.43 airy units. G3BP1-mCherry signals were imaged in axon shaft every 2 sec for 100 frames (at 540 nm excitation and 23% white light laser power; 565-597 nm emission). To study the effect of the G3BP1 190-208 peptide on the G3BP1-mCherry granules, 10 μM FITC-conjugated peptide was added to the media and 15 min later imaging was continued. For G3BP1-mCherry aggregates, a 100 μm of the axon shaft was considered (≥200 μm from cell body). Thresholding was applied to acquired image sequences using ImageJ to generate binary masks. ImageJ particle analyzer was used for analysis. G3BP1 aggregates with area of ≥1 μm2 were considered as SG-like structures. For analyzing the G3BP1 aggregate velocity, ImageJ […] plug-in was used.

[5] = test system: axonal mRNA translation in DRG neurons; test: FRAP of axonally targeted translation reporters in DRG neurons; conditions: G3BP1-overexpressing DRGs, 10 μM peptide; FIG. 14C
Experimental: FRAP was used to test for axonal mRNA protein synthesis using diffusion-limited GFP^MYR and mCherry^MYR reporters as described with minor modifications. In each case, DRG neurons were co-transfected with […]+mCherry^MYR5'/3'gap43 or […]β1+mCherry^MYR5'/3'gap43 so that recovery of both reporters could be analyzed simultaneously. Cells were maintained at 37° C., 5% CO2 during imaging sequences. 488 nm and 514 nm laser lines on Leica SP8X confocal microscope were used to bleach GFP and mCherry signals, respectively (Argon laser at 70% power, pulsed every 0.82 sec for 80 frames). Pinhole was set to 3 Airy units to ensure full thickness bleaching and acquisition (63×/1.4 NA oil immersion objective). Prior to photobleaching, neurons were imaged every 60 sec for 2 min to acquire baseline fluorescence the region of interest (ROI; 15% laser power, 498-530 nm for GFP and 565-597 nm for mCherry emissions, respectively). The same excitation and emission parameters were used to assess recovery over 15 min post-bleach with images acquired at 30 sec intervals. To determine if fluorescence recovery in axons was from translation, cultures were treated with 150 μg/ml cycloheximide (Sigma) or 100 μM anisomycin (Sigma) for 30 min. prior to photobleaching for […]+mCherry^MYR5'/3'gap43 and […] transfected DRGs, respectively. For peptide treatments, G3BP1-mCh transfected DRG neurons were treated with 10 μM G3BP1 peptides after acquiring the baseline expression values. Photobleaching followed by analyses of recovery was performed after 30 min of peptide exposure. Fluorescent intensities in the ROIs were calculated by the Leica LASX software. For normalizing across experiments, fluorescence intensity value at t=0 min post-bleach from each image sequence was set as 0%. The percentage of fluorescence recovery at each time point after photobleaching was then calculated by normalizing relative to the pre-bleach fluorescence intensity (set at 100%).

[6] = 10 μM peptide added to DRG cultures immediately after plating, FIG. 16B

Substance	axon growth (DRG neurons [1])	axon length (DRG neurons [2]; [6])	number of neurites per neuron (DRG neurons [2]; [6])	axon length (DRG neurons [2]; 7 d injury-conditioned (pre-injured) DRG neurons, peptide added at 12 h, assessed at 36 h, FIG. 11C)	axon length (DRG neurons [2]; naive DRG neurons, delayed application, peptide added at 12 h, assessed at 36 h, FIG. 11C)	axon growth (cortical neurons)	axonal protein synthesis (Puro incorporation in DRG axons) ([3]; listed as 190-208 G3BP1 peptide)	axonal protein synthesis (Puro incorporation in DRG axons) ([3]; listed as G3BP1 190-208 peptide)	axonal G3BP1-mCh aggregates (density along 100 μm axon) ([4]; 10 μM peptide, within 15 min, FIG. 12G)	size of remaining SG-like structures in axons ([4]; after 10 μM peptide treatment, 15 min, FIG. 12H)	motility of remaining aggregates ([4]; after peptide treatment vs. control conditions)	axonal translation of GFPMYR5′/3′impβ1 mRNA [5]	axonal translation of GFPMYR5′/3′nrn1 mRNA [5]	axonal translation of mChMYR5′/3′gap43 mRNA [5]
5′ ccacauaggagcugggaauuu 3′ [G3BP1 siRNA]	significantly increased axon growth	–	–	–	–	–	–	–	–	–	–	–	–	–
Glu Glu Ser Glu Glu Glu Val Glu Glu Pro Glu Glu Arg Gln Gln Ser Pro Glu Val Val Tvr Glv Asn Lvs Lvs Asn Asn Gln Asn Asn Asn [147-166 peptide]	–	increased axon length	–	–	–	–	–	–	–	–	–	–	–	–
Tvr Glv Asn Lvs Lvs Asn Asn Asn Gln Asn Asn Asn Val Val Glu Pro Glu Pro Glu Pro Glu Pro Glu Pro Glu Pro Glu Pro Val Ser [190-208 peptide]	–	increased axon length	increased number of neurites per neuron	significantly increased axon length; also recorded: effectively increase axon growth	significantly increased axon length; also recorded: effectively increase axon growth	significant increase in axon growth; also recorded: significantly increased axon growth	significantly increased	increased axonal protein synthesis	striking decrease	significantly smaller	greater motility	did not affect translation	significantly rescued axonal translation	did not affect translation
